Experiment in all cases: relative viability (nuclei count vs DMSO), 5 days (fraction); higher = more cells survive
Compound in experiment [1]: C[C@@]1(C(=O)Nc2ccc(F)nc2)CCCN1c1nc(Nc2cc(C3CC3)n[nH]2)c2cccn2n1 + Nc1ncn([C@H]2C[C@H](O)[C@@H](CO)O2)c(=O)n1 [Decitabine] (partner 2 µM)
Summed up:
(§1)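 Values are medians from duplicate plates. Each reflects relative viability, defined as the nuclei count of treated wells over that of vehicle wells. Lung cancer cell lines in 1536-well plates were pin-tool dosed one day after seeding with one drug alone or with a fixed anchor-drug dose plus five library-drug doses (not always all listed) in √10 steps, then fixed, stained and imaged at 4× after 5 days.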

Compound in experiment [2]: C[C@@]1(C(=O)Nc2ccc(F)nc2)CCCN1c1nc(Nc2cc(C3CC3)n[nH]2)c2cccn2n1 + CC1(C)CCC(c2ccc(Cl)cc2)=C(CN2CCN(c3ccc(C(=O)NS(=O)(=O)c4ccc(N[C@H](CCN5CCOCC5)CSc5ccccc5)c(S(=O)(=O)C(F)(F)F)c4)cc3)CC2)C1 [Navitoclax] (partner 0.5 µM)
In a few lines: as §1

Compound in experiment [3]: CC1(C)CNc2cc(NC(=O)c3cccnc3NCc3ccncc3)ccc21 [Motesanib] + Nc1ncn([C@H]2C[C@H](O)[C@@H](CO)O2)c(=O)n1 [Decitabine] (partner 2 µM)
Summed up:
as §1

Compound in experiment [4]: CC1(C)CNc2cc(NC(=O)c3cccnc3NCc3ccncc3)ccc21 [Motesanib] + COc1cc2c(Oc3ccc(NC(=O)C4(C(=O)Nc5ccc(F)cc5)CC4)cc3F)ccnc2cc1OCCCN1CCOCC1 [Foretinib] (partner 0.25 µM)
Summed up: as §1

These results are taken from the supplement of paper PMC10307832.

In the case of NCI-H322M, the relative viability in experiment [1] (first compound 0.04 µM) amounted to 0.658; in experiment [1] (first compound 0.1265 µM), 0.533; in experiment [1] (first compound 0.4 µM) it was 0.494; in experiment [1] (first compound 1.265 µM) it was 0.547; in experiment [2] (first compound 0.04 µM), 1.27; in experiment [2] (first compound 0.1265 µM) it was 1. Further, the relative viability in experiment [2] (first compound 0.4 µM) is 1.07; in experiment [2] (first compound 1.265 µM), 1.19; in experiment [3] (first compound 0.01 µM) it was 0.688; in experiment [3] (first compound 0.03162 µM) it was 0.672; in experiment [3] (first compound 0.1 µM) it was 0.707; in experiment [3] (first compound 0.3162 µM), 0.685. The relative viability in experiment [3] (first compound 1 µM) amounted to 0.777; in experiment [4] (first compound 0.01 µM) it was 1.09; in experiment [4] (first compound 0.03162 µM), 0.998; in experiment [4] (first compound 0.1 µM), 0.979; in experiment [4] (first compound 0.3162 µM), 0.946; in experiment [4] (first compound 1 µM) it was 1.06.

NCI-H441: the relative viability in experiment [1] (first compound 0.04 µM) was 0.24; in experiment [1] (first compound 0.1265 µM), 0.213; in experiment [1] (first compound 0.4 µM), 0.23; in experiment [1] (first compound 1.265 µM), 0.223; in experiment [2] (first compound 0.04 µM), 0.363; in experiment [2] (first compound 0.1265 µM), 0.413. The relative viability in experiment [2] (first compound 0.4 µM) came out at 0.116; in experiment [2] (first compound 1.265 µM) it was 0.505; in experiment [3] (first compound 0.01 µM) it was 0.271; in experiment [3] (first compound 0.03162 µM), 0.307; in experiment [3] (first compound 0.1 µM) it was 0.502; in experiment [3] (first compound 0.3162 µM), 0.514. For the same cell line, the relative viability in experiment [3] (first compound 1 µM) worked out at 0.478; in experiment [4] (first compound 0.01 µM) it was 0.889; in experiment [4] (first compound 0.03162 µM), 0.922; in experiment [4] (first compound 0.1 µM), 1.13; in experiment [4] (first compound 0.3162 µM), 1; in experiment [4] (first compound 1 µM), 1.03.

Take NCI-H460: the relative viability in experiment [1] (first compound 0.04 µM) was 0.506; in experiment [1] (first compound 0.1265 µM) it was 0.446; in experiment [1] (first compound 0.4 µM), 0.413; in experiment [1] (first compound 1.265 µM) it was 0.346; in experiment [2] (first compound 0.04 µM), 1.08; in experiment [2] (first compound 0.1265 µM), 0.893. Moreover, the relative viability in experiment [2] (first compound 0.4 µM) came to 1.01; in experiment [2] (first compound 1.265 µM), 1.23; in experiment [3] (first compound 0.01 µM) it was 0.531; in experiment [3] (first compound 0.03162 µM), 0.453; in experiment [3] (first compound 0.1 µM), 0.467; in experiment [3] (first compound 0.3162 µM), 0.568. For the same cell line, the relative viability in experiment [3] (first compound 1 µM) amounted to 0.543; in experiment [4] (first compound 0.01 µM), 0.942; in experiment [4] (first compound 0.03162 µM), 0.966; in experiment [4] (first compound 0.1 µM) it was 1; in experiment [4] (first compound 0.3162 µM), 1.01; in experiment [4] (first compound 1 µM), 1.04.

As for NCI-H520, the relative viability in experiment [1] (first compound 0.04 µM) was 0.498; in experiment [1] (first compound 0.1265 µM) it was 0.493; in experiment [1] (first compound 0.4 µM), 0.416; in experiment [1] (first compound 1.265 µM), 0.491; in experiment [2] (first compound 0.04 µM), 1.16; in experiment [2] (first compound 0.1265 µM) it was 0.988. Besides, the relative viability in experiment [2] (first compound 0.4 µM) stood at 1.04; in experiment [2] (first compound 1.265 µM), 1.11; in experiment [3] (first compound 0.01 µM), 0.554; in experiment [3] (first compound 0.03162 µM) it was 0.538; in experiment [3] (first compound 0.1 µM), 0.626; in experiment [3] (first compound 0.3162 µM), 0.613. Besides, the relative viability in experiment [3] (first compound 1 µM) worked out at 0.669; in experiment [4] (first compound 0.01 µM) it was 0.857; in experiment [4] (first compound 0.03162 µM) it was 0.79; in experiment [4] (first compound 0.1 µM) it was 0.922; in experiment [4] (first compound 0.3162 µM), 0.851; in experiment [4] (first compound 1 µM), 0.948.

For NCI-H596, the relative viability stood at 1.08 in experiment [1] (first compound 0.04 µM); 0.977 in experiment [1] (first compound 0.1265 µM); 0.96 in experiment [1] (first compound 0.4 µM); 0.912 in experiment [1] (first compound 1.265 µM); 1.01 in experiment [2] (first compound 0.04 µM); 0.809 in experiment [2] (first compound 0.1265 µM). In addition, the relative viability was found to be 0.921 in experiment [2] (first compound 0.4 µM); 1.09 in experiment [2] (first compound 1.265 µM); 1.1 in experiment [3] (first compound 0.01 µM); 1.08 in experiment [3] (first compound 0.03162 µM); 1.12 in experiment [3] (first compound 0.1 µM); 1.15 in experiment [3] (first compound 0.3162 µM). For the same cell line, the relative viability is 1.16 in experiment [3] (first compound 1 µM); 0.817 in experiment [4] (first compound 0.01 µM); 0.818 in experiment [4] (first compound 0.03162 µM); 0.98 in experiment [4] (first compound 0.1 µM); 0.656 in experiment [4] (first compound 0.3162 µM); 0.806 in experiment [4] (first compound 1 µM).

With NCI-H647, the relative viability in experiment [1] (first compound 0.04 µM) is 0.504; in experiment [1] (first compound 0.1265 µM), 0.312; in experiment [1] (first compound 0.4 µM), 0.368; in experiment [1] (first compound 1.265 µM), 0.421; in experiment [2] (first compound 0.04 µM), 1.1; in experiment [2] (first compound 0.1265 µM), 0.989. For the same cell line, the relative viability in experiment [2] (first compound 0.4 µM) came out at 0.894; in experiment [2] (first compound 1.265 µM) it was 1.14; in experiment [3] (first compound 0.01 µM), 0.43; in experiment [3] (first compound 0.03162 µM), 0.441; in experiment [3] (first compound 0.1 µM), 0.488; in experiment [3] (first compound 0.3162 µM), 0.542. The relative viability was found to be 0.535 in experiment [3] (first compound 1 µM); 1.21 in experiment [4] (first compound 0.01 µM); 1.14 in experiment [4] (first compound 0.03162 µM); 1.21 in experiment [4] (first compound 0.1 µM); 1.25 in experiment [4] (first compound 0.3162 µM); 1.14 in experiment [4] (first compound 1 µM).

Take NCI-H727: the relative viability in experiment [1] (first compound 0.04 µM) worked out at 0.8; in experiment [1] (first compound 0.1265 µM), 0.636; in experiment [1] (first compound 0.4 µM), 0.529; in experiment [1] (first compound 1.265 µM), 0.362; in experiment [2] (first compound 0.04 µM), 0.175; in experiment [2] (first compound 0.1265 µM), 0.185. The relative viability came to 0.106 in experiment [2] (first compound 0.4 µM); 0.14 in experiment [2] (first compound 1.265 µM); 0.861 in experiment [3] (first compound 0.01 µM); 0.927 in experiment [3] (first compound 0.03162 µM); 0.929 in experiment [3] (first compound 0.1 µM); 0.804 in experiment [3] (first compound 0.3162 µM). In addition, the relative viability in experiment [3] (first compound 1 µM) amounted to 0.937; in experiment [4] (first compound 0.01 µM) it was 0.707; in experiment [4] (first compound 0.03162 µM) it was 0.98; in experiment [4] (first compound 0.1 µM), 0.854; in experiment [4] (first compound 0.3162 µM), 1.09; in experiment [4] (first compound 1 µM), 0.883.

For NCI-H838, the relative viability in experiment [1] (first compound 0.04 µM) is 0.461; in experiment [1] (first compound 0.1265 µM), 0.467; in experiment [1] (first compound 0.4 µM), 0.395; in experiment [1] (first compound 1.265 µM), 0.335; in experiment [2] (first compound 0.04 µM), 1.21; in experiment [2] (first compound 0.1265 µM), 1.01. Besides, the relative viability in experiment [2] (first compound 0.4 µM) came to 0.948; in experiment [2] (first compound 1.265 µM), 1.1; in experiment [3] (first compound 0.01 µM), 0.484; in experiment [3] (first compound 0.03162 µM) it was 0.49; in experiment [3] (first compound 0.1 µM), 0.541; in experiment [3] (first compound 0.3162 µM), 0.572. Also, the relative viability in experiment [3] (first compound 1 µM) was 0.582; in experiment [4] (first compound 0.01 µM) it was 1.17; in experiment [4] (first compound 0.03162 µM) it was 1.06; in experiment [4] (first compound 0.1 µM), 1.07; in experiment [4] (first compound 0.3162 µM), 1.14; in experiment [4] (first compound 1 µM), 1.09.
